The text below walks through data of ChEMBL document CHEMBL1212847, “Synthesis and pharmacology of 1-methoxy analogs of CP-47,497” (Bioorg Med Chem, 2010).

One test deals with Cannabinoid receptor 1 (Rattus norvegicus, UniProt P20272). Nature of the test: Displacement of [3H]CP-55940 from CB1 receptor in Sprague-Dawley rat brain cortex membranes. The test is classed as cell membranes, Membrane.
A further test has as its target Cannabinoid receptor 2 (Homo sapiens, UniProt P34972). Nature of the test: Displacement of [3H]CP-55940 from human CB2 receptor expressed in CHO cells after 1 hr by liquid scintillation spectrometry analysis. The test is classed as cell-based. Background: Loss of bound radioactivity is the signal in a displacement assay; it reports binding, not function.

A value given as a limit tells only on which side of the number the result lay.

Chain of Cannabinoid receptor 2 (P34972 whole entry): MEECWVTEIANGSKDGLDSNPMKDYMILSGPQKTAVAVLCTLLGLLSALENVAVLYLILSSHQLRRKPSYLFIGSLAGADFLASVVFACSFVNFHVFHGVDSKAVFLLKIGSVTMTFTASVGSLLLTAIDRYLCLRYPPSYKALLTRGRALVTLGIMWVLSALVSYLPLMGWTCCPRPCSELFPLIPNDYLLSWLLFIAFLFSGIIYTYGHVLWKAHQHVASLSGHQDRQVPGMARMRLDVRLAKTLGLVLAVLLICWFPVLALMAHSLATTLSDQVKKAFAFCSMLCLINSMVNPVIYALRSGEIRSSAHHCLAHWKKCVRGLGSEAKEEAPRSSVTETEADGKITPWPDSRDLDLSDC
Chain of Cannabinoid receptor 1 (P20272 whole entry): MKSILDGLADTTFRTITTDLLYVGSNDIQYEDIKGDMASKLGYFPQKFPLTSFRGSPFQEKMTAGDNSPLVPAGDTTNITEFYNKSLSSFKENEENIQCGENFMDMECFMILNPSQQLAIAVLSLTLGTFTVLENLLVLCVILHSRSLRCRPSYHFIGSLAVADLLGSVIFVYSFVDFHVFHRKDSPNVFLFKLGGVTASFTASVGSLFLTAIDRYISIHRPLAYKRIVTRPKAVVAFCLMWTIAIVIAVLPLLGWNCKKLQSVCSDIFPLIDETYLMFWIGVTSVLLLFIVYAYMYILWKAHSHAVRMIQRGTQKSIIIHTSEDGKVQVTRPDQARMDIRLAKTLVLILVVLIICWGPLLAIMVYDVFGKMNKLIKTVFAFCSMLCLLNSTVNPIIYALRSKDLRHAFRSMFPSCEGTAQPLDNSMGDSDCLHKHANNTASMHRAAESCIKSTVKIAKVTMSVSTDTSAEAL

For orientation: Ki means the equilibrium dissociation constant of an inhibitor or competing ligand from its target. Lower therefore signals higher affinity. Consider `CCCCCCC(C)(C)c1ccc([C@H]2CCC[C@@H](O)C2)c(O)c1`, for which, at Cannabinoid receptor 1, the inhibition constant Ki turned out to be 9.54 nM.
For the molecule `CCCCCCC(C)(C)c1ccc([C@H]2CCC[C@@H](O)C2)c(OC)c1` (relative stereo), the Ki on Cannabinoid receptor 2 was 808 nM; on Cannabinoid receptor 1, greater than 10000 nM.
As to `CCCCCC(C)(C)c1ccc([C@H]2CCC[C@H](O)C2)c(OC)c1` (relative stereo), the Ki on Cannabinoid receptor 2 is 693 nM; at Cannabinoid receptor 1 it was 4120 nM.
The corresponding values for `CCCCCCC(C)(C)c1ccc([C@H]2CCC[C@H](O)C2)cc1` (relative stereo) are 178 nM and 645 nM.
The corresponding values for `CCCCCC(C)(C)c1ccc([C@H]2CCC[C@@H](O)C2)c(OC)c1` (relative stereo) are 553 nM and 4410 nM.
